Activity and inhibition data for four compounds are collected here from ChEMBL document CHEMBL1153642, “Induction of apoptosis in HuH-7 cancer cells by monoterpene and beta-carboline indole alkaloids isolated from the leaves of Tabernaemontana elegans” (2009).

In assay [1] the test system is Huh-7. The experiment in a line: Induction of apoptosis in human HuH7 cells assessed as increase in caspase-3 activity after 12 hrs. The assay is classed as functional, cell-based.
For assay [2], the system named is Huh-7. Kind of assay: Induction of apoptosis in human HuH7 cells assessed as change in nuclear morphology after 24 hrs using Hoechst staining. The assay is classed as functional.
Assay [3] relates to Huh-7. Kind of assay: Induction of apoptosis in human HuH7 cells assessed as change in nuclear morphology after 72 hrs using Hoechst staining. The assay is classed as functional.
Assay [4] deals with Huh-7. Kind of assay: Induction of apoptosis in human HuH7 cells assessed as change in nuclear morphology after 48 hrs using Hoechst staining. The assay is classed as functional.
In assay [5] the test system is Huh-7. Kind of assay: Induction of necrosis in human HuH7 cells. Format: functional, cell-based.
In assay [6] the test system is Huh-7. Kind of assay: Induction of apoptosis in human HuH7 cells assessed as cell death after 24 hrs by trypan blue dye exclusion assay. The assay is classed as functional, cell-based.

The source made the active and inactive calls. The rule behind the calls is not given here. A value given as a limit tells only on which side of the number the result lay.

Take `CC[C@@H]1CN(C)[C@H]2Cc3c([nH]c4ccccc34)C(=O)C[C@@H]1[C@H]2C(=O)OC` [TABERNAEMONTANINE]: the outcome in the assay on Huh-7 [1] was Active. For the same compound, the Activity is reported as 40% in the assay with Huh-7 [2], less than 25% in the assay with Huh-7 [3] and less than 25% in the assay on Huh-7 [4]. In the assay on Huh-7 [5], the inhibition result was “inactive”.
Turning to `Cc1cc2c([nH]c3ccccc32)c2[n+]1C(C)NCC2` (configuration not stated), in the assay with Huh-7 [6], the result was Active.
On to `Cc1cc2c3ccccc3n3c2c(n1)CCNC3C` (configuration not stated), for which the outcome in the assay on Huh-7 [6] was Active.
For the compound `C/C=C1/CN(C)[C@H]2Cc3c([nH]c4ccccc34)C(=O)C[C@H]1[C@@H]2C(=O)OC` [VOBASINE], in the assay with Huh-7 [1], the outcome was Active. The Activity in the assay with Huh-7 [2] is 40%; in the assay with Huh-7 [3], less than 25%; in the assay on Huh-7 [4], less than 25%. Besides, in the assay with Huh-7 [5], the inhibition result was “inactive”.
